# Data from ChEMBL document CHEMBL1201862, “PubChem BioAssay data set” (2004).
# Activity calls are given as the source filed them.
# What was measured:
# [1] = alpha-synuclein stem-loop luciferase translation blockers – H4 neuroglioma cells, luminescence, confirmation (AID 1988); type: functional, cell-based
# [2] = HEK-293T viability loss after treatment – luminescence, T-cell screen hits, cytotoxicity control for TCR NF-kB inhibitor project, dose response (AID 489026); type: functional, cell-based;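 note: cells exposed to compound about 14 hours before the viability readout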
# [3] = luciferase reporter signal suppression in cells – H4 neuroglioma cells, luminescence, dose response (AID 1990); type: functional, cell-based
# [4] = Luminescence Cell-Based Dose Response HTS to Identify Inhibitors of 5'UTR Stem-Loop Driven Prion Protein mRNA Translation in H4 Neuroglioblastoma Cells. [Related pubchem assays: 1827 (Project Summary), 1813 (Primary HTS)]; type: functional
# [5] = target: T1, Heat shock factor protein 1 (Mus musculus, UniProt P38532); experiment: decrease of HSF1-responsive luciferase luminescence – cell-based, NIH3T3, dose retest, confirmation (AID 2382); type: functional;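 note: NIH3T3 fibroblasts with HSF1-driven luciferase reporter stressed by proteasome inhibitor MG132; luminescence from HSF1-driven luciferase expression after 8 hours of MG132 stress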
# T1 sequence (P38532 whole entry): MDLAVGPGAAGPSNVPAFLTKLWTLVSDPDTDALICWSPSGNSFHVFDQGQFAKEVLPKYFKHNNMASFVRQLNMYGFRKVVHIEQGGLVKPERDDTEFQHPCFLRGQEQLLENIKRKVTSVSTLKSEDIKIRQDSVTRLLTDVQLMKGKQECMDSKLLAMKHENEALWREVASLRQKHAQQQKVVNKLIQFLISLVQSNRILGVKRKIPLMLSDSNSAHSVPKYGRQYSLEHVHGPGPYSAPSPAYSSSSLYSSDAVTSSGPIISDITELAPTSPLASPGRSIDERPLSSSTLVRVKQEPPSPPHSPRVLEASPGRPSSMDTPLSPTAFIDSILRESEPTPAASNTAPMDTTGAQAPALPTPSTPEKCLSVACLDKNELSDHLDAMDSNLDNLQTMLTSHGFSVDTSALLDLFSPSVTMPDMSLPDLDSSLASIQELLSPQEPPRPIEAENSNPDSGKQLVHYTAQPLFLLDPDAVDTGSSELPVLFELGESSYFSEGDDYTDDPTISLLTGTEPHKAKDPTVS
# Coagulation factor XII = target: T2, Coagulation factor XII (Homo sapiens, UniProt P00748); type: functional;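 note: activated factor XIIa alpha cleaving a fluorogenic AMC peptide substrate; inhibitor potency from loss of enzyme activity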
# T2 sequence (P00748 whole entry): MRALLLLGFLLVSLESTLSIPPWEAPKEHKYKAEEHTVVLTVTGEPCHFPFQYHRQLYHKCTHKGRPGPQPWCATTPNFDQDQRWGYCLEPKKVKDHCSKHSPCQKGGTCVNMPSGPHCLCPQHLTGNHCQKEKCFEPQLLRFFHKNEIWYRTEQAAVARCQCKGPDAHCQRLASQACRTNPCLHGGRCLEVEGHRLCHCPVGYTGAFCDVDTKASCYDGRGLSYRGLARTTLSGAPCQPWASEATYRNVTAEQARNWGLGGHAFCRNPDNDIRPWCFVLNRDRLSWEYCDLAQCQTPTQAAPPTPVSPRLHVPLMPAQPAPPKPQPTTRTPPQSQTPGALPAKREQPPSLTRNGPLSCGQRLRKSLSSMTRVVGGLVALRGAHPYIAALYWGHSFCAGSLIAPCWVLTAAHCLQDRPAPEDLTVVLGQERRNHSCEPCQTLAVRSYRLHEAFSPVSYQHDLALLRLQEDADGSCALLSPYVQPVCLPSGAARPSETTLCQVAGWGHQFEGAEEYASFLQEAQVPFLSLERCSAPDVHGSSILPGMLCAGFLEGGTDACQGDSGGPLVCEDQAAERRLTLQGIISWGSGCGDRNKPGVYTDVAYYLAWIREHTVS
# [6] = target: T3, Adenosylmethionine-8-amino-7-oxononanoate aminotransferase (Mycobacterium tuberculosis, UniProt P9WQ81); experiment: Mycobacterium tuberculosis BioA enzyme inhibitor Measured in Biochemical System Using Plate Reader - 2163-02_Inhibitor_Dose_CherryPick_Activity.; type: functional, Mycobacterium tuberculosis UT205
# T3 sequence (P9WQ81 whole entry): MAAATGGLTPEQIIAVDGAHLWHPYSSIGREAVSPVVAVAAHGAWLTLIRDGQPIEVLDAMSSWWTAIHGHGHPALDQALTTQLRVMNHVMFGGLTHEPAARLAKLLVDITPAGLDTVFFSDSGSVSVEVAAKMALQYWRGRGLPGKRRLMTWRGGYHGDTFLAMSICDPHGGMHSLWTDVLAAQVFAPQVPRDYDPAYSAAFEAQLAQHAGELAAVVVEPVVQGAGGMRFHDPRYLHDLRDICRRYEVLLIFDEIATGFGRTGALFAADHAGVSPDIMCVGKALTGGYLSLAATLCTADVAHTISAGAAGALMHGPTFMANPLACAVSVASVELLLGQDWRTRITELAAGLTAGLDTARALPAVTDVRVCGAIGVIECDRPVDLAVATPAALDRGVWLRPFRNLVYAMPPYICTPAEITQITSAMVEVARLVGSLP
# [7] = target: T4, Carboxy-terminal domain RNA polymerase II polypeptide A small phosphatase 1 (Homo sapiens, UniProt Q9GZU7); experiment: CTDSP1 inhibitors, concentration-response, biochemical, absorbance readout, ultra-high-throughput screen actives (AID 540297); type: functional
# T4 sequence (Q9GZU7 whole entry): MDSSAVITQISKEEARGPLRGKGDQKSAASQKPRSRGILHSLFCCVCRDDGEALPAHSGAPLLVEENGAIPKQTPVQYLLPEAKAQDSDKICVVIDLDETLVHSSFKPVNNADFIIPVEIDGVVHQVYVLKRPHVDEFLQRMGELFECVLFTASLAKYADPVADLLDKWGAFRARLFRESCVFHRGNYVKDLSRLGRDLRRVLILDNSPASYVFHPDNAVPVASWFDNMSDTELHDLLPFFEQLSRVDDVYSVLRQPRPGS
# Genome polyprotein = Genome polyprotein (dengue virus type 2, UniProt P29990); experiment: flavivirus cap methylation enzyme inhibition – biochemical, confirmation dose response, primary screen (AID 588689); type: functional
# Chain of Genome polyprotein (P29990 2492-3391 limits assumed): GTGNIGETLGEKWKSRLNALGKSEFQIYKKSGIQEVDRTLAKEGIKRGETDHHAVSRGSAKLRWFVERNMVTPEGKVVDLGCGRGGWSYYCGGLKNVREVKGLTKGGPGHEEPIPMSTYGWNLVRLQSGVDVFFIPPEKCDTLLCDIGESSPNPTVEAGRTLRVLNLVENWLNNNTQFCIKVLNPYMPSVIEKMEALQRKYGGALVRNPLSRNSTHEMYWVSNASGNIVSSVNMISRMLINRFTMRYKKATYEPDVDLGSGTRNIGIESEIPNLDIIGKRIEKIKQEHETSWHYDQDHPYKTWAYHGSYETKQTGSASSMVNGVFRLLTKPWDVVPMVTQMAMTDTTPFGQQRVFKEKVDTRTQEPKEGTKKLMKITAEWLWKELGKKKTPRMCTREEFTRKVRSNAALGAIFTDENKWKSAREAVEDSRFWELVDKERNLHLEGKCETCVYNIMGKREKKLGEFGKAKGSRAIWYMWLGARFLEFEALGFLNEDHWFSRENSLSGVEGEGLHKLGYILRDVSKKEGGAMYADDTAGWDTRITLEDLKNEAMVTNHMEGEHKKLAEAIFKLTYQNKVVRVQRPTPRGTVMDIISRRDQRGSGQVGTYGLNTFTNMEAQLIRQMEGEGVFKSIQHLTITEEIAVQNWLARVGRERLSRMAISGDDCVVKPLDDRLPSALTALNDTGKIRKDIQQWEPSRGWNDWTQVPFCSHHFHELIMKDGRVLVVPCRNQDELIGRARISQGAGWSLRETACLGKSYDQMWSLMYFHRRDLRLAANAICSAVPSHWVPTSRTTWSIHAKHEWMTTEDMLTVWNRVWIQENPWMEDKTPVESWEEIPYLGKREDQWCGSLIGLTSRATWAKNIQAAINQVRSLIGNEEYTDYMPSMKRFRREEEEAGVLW
# [8] = target: DNA dC->dU-editing enzyme APOBEC-3G (Homo sapiens, UniProt Q9HC16); experiment: Dose Response confirmation of small molecule APOBEC3G DNA Deaminase Inhibitors via a fluorescence-based single-stranded DNA deaminase assay. [Related pubchem assays (depositor defined):AID493012, AID493028]; type: functional
# Chain of DNA dC->dU-editing enzyme APOBEC-3G (Q9HC16 whole entry): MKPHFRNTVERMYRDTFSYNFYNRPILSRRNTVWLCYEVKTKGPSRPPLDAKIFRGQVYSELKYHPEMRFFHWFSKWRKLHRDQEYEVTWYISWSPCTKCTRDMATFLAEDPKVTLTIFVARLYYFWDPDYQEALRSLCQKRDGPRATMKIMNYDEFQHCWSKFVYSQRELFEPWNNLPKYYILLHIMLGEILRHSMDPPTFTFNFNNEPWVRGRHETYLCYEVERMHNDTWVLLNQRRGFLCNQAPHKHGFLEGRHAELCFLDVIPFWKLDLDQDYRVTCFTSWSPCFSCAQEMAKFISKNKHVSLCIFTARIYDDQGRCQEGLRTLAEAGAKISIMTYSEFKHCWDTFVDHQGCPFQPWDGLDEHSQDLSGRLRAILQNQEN
# Cytochrome P450 3A4 = Cytochrome P450 3A4 (Homo sapiens, UniProt P08684); settings: Potency;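 note: confirmatory qHTS run detecting inhibitors and substrates of CYP3A4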
# Chain of Cytochrome P450 3A4 (P08684 whole entry): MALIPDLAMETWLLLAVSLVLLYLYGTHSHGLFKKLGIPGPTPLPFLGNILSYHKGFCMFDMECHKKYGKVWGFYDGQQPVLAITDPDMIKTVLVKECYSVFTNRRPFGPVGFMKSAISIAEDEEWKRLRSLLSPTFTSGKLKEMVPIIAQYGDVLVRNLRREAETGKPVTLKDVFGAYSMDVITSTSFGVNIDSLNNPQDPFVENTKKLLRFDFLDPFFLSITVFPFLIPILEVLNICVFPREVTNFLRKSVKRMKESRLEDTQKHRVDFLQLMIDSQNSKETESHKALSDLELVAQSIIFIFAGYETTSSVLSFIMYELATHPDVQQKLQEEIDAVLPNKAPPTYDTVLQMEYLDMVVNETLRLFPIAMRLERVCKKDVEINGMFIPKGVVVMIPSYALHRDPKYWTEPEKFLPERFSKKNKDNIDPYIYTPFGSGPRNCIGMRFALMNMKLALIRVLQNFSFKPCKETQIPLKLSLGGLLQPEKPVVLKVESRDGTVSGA
smiles,measurement,setting,value
Cc1nc(Nc2nc(O)c3c(n2)CCC3)nc2ccccc12,EC50,[1],9.61 µM (active)
same,IC50,[2],> 80 µM (inactive)
same,EC50,[3],> 120 µM (not active)
same,EC50,[4],> 120 µM (not active)
CC1=C(C(=O)Nc2ccc(C)cc2)C(c2ccc(C)o2)C2=C(O)CC(C)(C)CC2=N1 (stereo unspecified),EC50,[5],> 195 µM (not active)
same,IC50,Coagulation factor XII,> 50 µM (inactive)
O=C(Nc1ccccc1)N1CCN(Cc2ccc3c(c2)OCO3)CC1,AC50,[6],2.63 µM (active)
CCc1c(C)nc2ncnn2c1Nc1ccc(C#N)c(Cl)c1,AC50,[6],10.5 µM (active)
COC(=O)c1ccc(Oc2nc(NC(C)C)nc(SC)n2)cc1,IC50,Coagulation factor XII,> 50 µM (inactive)
Cc1cccc(-c2ccc3c(c2)C2CC3CCN2)c1 (stereo unspecified),AC50,[6],4.64 µM (active)
Cc1cc(Cl)c(S(=O)(=O)NC(C(=O)O)c2ccccc2)cc1OCC(N)=O (stereo unspecified),IC50,[7],12.9 µM (active)
COc1ccc(/C=N/NC(=O)CCn2cnc3ccccc32)cc1,IC50,Coagulation factor XII,> 50 µM (inactive)
CCOc1cc(/C=N/NC2=NC(=O)C(CC(=O)O)S2)ccc1OCc1ccc(Cl)cc1 (stereo unspecified),IC50,Genome polyprotein,47.9 µM (active)
same,IC50,[7],7.12 µM (active)
O=[N+]([O-])c1ccc(Cl)c(/C=N/n2c(S)nnc2-c2ccncc2)c1,IC50,[8],4.79 µM (active)
O=C1CC(c2ccccc2O)Oc2ccc(O)cc21 (stereo unspecified),AC50,Cytochrome P450 3A4,25.1 µM (inconclusive)
